# Test results: publication PMC7388970 (The Cell Surface, 2020)
# System: J774 cells
# Experiment: MTT assay for cytotoxicity
# Format: cell-based
# Conditions: Mus musculus, J774, 24 h, read-out: J-774 (IC50)
row,SMILES,IC50
1,"COc1ccc(C=CC(=O)c2ccccc2)cc1OC [Compound 1a, 3-(3,4-Dimethoxyphenyl)-1-phenylprop-2-en-1-one]",50 mg/L
2,"COc1ccc(C=CC(=O)c2cccc(Br)c2)cc1OC [Compound 1b, 1-(3-Bromophenyl)-3-(3,4-dimethoxyphenyl)prop-2-en-1-one]",25 mg/L
3,"COc1ccc(C=CC(=O)c2ccccc2Br)cc1OC [Compound 1c, 1-(2-Bromophenyl)-3-(3,4-dimethoxyphenyl)prop-2-en-1-one]",25 mg/L
4,"COc1ccc(C=CC(=O)c2ccc(Br)cc2)cc1OC [Compound 1d, 1-(4-Bromophenyl)-3-(3,4-dimethoxyphenyl)prop-2-en-1-one]",25 mg/L
5,"COc1ccc(C=CC(=O)c2cccc(Cl)c2)cc1OC [Compound 1e, 1-(3-Chlorophenyl)-3-(3,4-dimethoxyphenyl)prop-2-en-1-one]",12.5 mg/L
6,"COc1ccc(C=CC(=O)c2ccccc2Cl)cc1OC [Compound 1f, 1-(2-Chlorophenyl)-3-(3,4-dimethoxyphenyl)prop-2-en-1-one]",12.5 mg/L
7,"COc1ccc(C=CC(=O)c2ccc(Cl)cc2)cc1OC [Compound 1g, 1-(4-Chlorophenyl)-3-(3,4-dimethoxyphenyl)prop-2-en-1-one]",12.5 mg/L
8,"COc1ccc(C=CC(=O)c2ccc(C)cc2)cc1OC [Compound 1j, 3-(3,4-Dimethoxyphenyl)-1-(p-tolyl)prop-2-en-1-one]",25 mg/L
9,"COc1ccc(C=CC(=O)c2ccc(-c3ccccc3)cc2)cc1OC [Compound 1k, 1-([1,1'-Biphenyl]-4-yl)-3-(3,4-dimethoxyphenyl)prop-2-en-1-one]",25 mg/L
10,"COc1ccc(C=CC(=O)c2ccccc2C)cc1OC [Compound 1m, 3-(3,4-Dimethoxyphenyl)-1-(o-tolyl)prop-2-en-1-one]",25 mg/L
11,"COc1ccc(C=CC(=O)c2ccc([N+](=O)[O-])cc2)cc1OC [Compound 1n, 3-(3,4-Dimethoxyphenyl)-1-(4-nitrophenyl)prop-2-en-1-one]",50 mg/L

# System: Mycobacterium bovis BCG cells
# Experiment: not given
# Format: cell-based
# Conditions: not given
row,SMILES,proportion of cells showing morphological changes
1,"COc1ccc(C=CC(=O)c2ccccc2)cc1OC [Compound 1a, 3-(3,4-Dimethoxyphenyl)-1-phenylprop-2-en-1-one]",76%

# System: mycolic acid biosynthesis in M. bovis BCG
# Experiment: not given
# Format: cell-based, Mycobacterium bovis BCG
# Conditions: not given
SMILES,FAMEs,production of α- and k-MAMEs
"COc1ccc(C=CC(=O)c2ccccc2)cc1OC [Compound 1a, 3-(3,4-Dimethoxyphenyl)-1-phenylprop-2-en-1-one]",accumulation of FAMEs in a dose-dependent manner,dose-dependent decrease
